PMC4641156, “Evaluation of a Novel Tc-99m Labelled Vitamin B12 Derivative for Targeting Escherichia coli and Staphylococcus aureus In Vitro and in an Experimental Foreign-Body Infection Model” (Molecular Imaging and Biology, 2015)

How the values were obtained:
S. aureus-infected cages = assay: Distribution into S. aureus-infected tissue cages and cage fluids; conditions: for Cage—S. aureus, mean % ID/g tissue ± SD: explanted S. aureus-infected cage
Method: (§1) For in vivo studies, overnight cultures were prepared in 5 ml tryptic soy broth (TSB), incubated at 37 °C for 18–20 h. Bacterial suspensions were then washed three times, resuspended in 5 ml of sterile 0.9 % saline and diluted.
(§2) C57Bl/6 mice from in-house breeding or purchased from Charles River Laboratories GmbH (Sulzfeld, Germany) were housed in the Animal Facility of the Department of Biomedicine, University Hospital, Basel, Switzerland. Experiments were performed in accordance to the regulations of Swiss veterinary law. The Institutional Animal Care and Use Committee approved the study protocol. Drinking water and standard laboratory food pellets (CR) were provided ad libitum. To reduce interference of high vitamin B12 level in mice, animals randomized for Cbl biodistribution studies were fed with a vitamin B12-reduced diet (Provimi Kliba AG, Kaiseraugst, Switzerland) beginning at the age of 10 weeks. At the age of 12 weeks, one sterile polytetrafluoroethylene (Teflon) tube (32 × 10 mm), perforated by 130 regularly spaced holes of 1 mm diameter, was aseptically implanted into the back of each mouse, as previously described. Each cage was weighted and numbered before implantation. Two weeks after surgery, clips were removed from healed wounds, and sterility of the cage was confirmed by culture of aspirated cage fluid. On the following day, 5 × 10^5 CFU of E. coli or 5 × 10^6 CFU of S. aureus, resuspended in 200 μl of 0.9 % saline, were injected into cages. Sterile 0.9 % saline was injected in cages in animals used as negative controls.
(§3) Accumulation of radiopharmaceuticals in cage fluids was measured by resuspending 100 μl of aspirated fluid in 1 ml PBS and counted in a gamma counter. The percentage of injected dose (% IDTCF/ml) was calculated as measured CPM normalized per 1 ml cage fluid and divided by the CPM0 (injected dose). For determination of radiopharmaceutical biodistribution, mice were sacrificed with an intraperitoneal injection of 50–80 μl saline solution of pentothal (100 mg/ml). Blood was collected by cardiac puncture, and mice were perfused with 0.9 % saline for around 5 min. Following, tissues were dissected, weighted and collected into test tubes for γ-counter (blood, heart, liver, spleen, stomach, kidneys, lungs, intestine, muscle, bone and cage). The percentage of injected dose (% IDtissue/g) was calculated as CPM associated to each organ divided by its weight in grams and by the CPM0.

[1] = Distribution into sterile (non-infected) tissue cages and cage fluids; conditions: for Cage—sterile, mean % ID/g tissue ± SD: explanted sterile cage
Method: as §2, §3

[2] = system: transcobalamin II (TC II); parameters: method as in PMID 12831983, PMID 18413759; conditions: cited from earlier work
E. coli-infected cages = assay: Distribution into E. coli-infected tissue cages and cage fluids; conditions: for Cage—E. coli, mean % ID/g tissue ± SD: explanted E. coli-infected cage
Method: as §1, §2, §3

[3] = system: S. aureus (ATCC 35556, methicillin susceptible); assay: In vitro binding of radiotracers to S. aureus (kinetics and competition with unlabeled Cbl); type: cell-based, Staphylococcus aureus
Method: Laboratory strains E. coli (ATCC 25922) and S. aureus (ATCC 35556, methicillin susceptible) were used. Bacteria were stored at −70 °C using a cryovial bead preservation system (Microbank, Pro-Lab Diagnostics, Richmond Hill, ON, Canada). Single cryovial beads were cultured overnight on Columbia sheep blood agar plates (Becton Dickinson, Heidelberg, Germany). For in vitro binding studies, overnight cultures were prepared in snap-lid tubes from 2 to 3 CFU in 5 ml of a synthetic minimal medium depleted of vitamin B12. After 18–20 h of incubation at 37 °C and 200 rpm, the cultures were diluted 1:100 in the same medium and further incubated at 37 °C to mid-logarithmic phase in sealed tubes. […] Five hundred microlitres of resuspended cultures were transferred to Eppendorf tubes and used for the measurement of binding to viable bacteria at 37 °C. For testing binding at 4 °C, bacterial suspension in PBS were let to equilibrate for 1 h at 4 °C before adding the radiopharmaceuticals. […] The bacterial suspensions were then centrifuged, resuspended in PBS and used for further studies. […] Colony counts remained <10 CFU/ml. Five hundred microlitres of each radiopharmaceutical solution was added to the 500 μl of bacterial suspensions. Binding assays were performed in quadruplicate vials per testing conditions. Afterwards, vials were centrifuged for 5 min at 13,500 rpm and 4 °C, and pellets were washed with 500 μl of cooled PBS. Supernatants and resuspended pellets were counted in a multi-well NaI γ-counter (Cobra; Packard, USA) and the counts per minute (CPM) recorded. The percentage of radiolabeled Cbl in the pellets was calculated as the percentage of the CPMp/CPM0 ratio per log10 8.0 CFU/ml, where CPMp were the CPM associated to pellets and CPM0 were the total CPM of the radiolabeled Cbl added per vial.

[4] = Biodistribution after i.v. injection in tissue cage mouse model (organs, tissues, cages overall)
Method: as §2
The two different experimental set-up of biodistribution were adapted to the known radiopharmaceutical binding/non-binding to plasma protein, persistence in organs and tissues and half-life of the labelling radioisotope.
as §3

E. coli (ATCC 25922) = assay: In vitro binding of radiotracers to E. coli (kinetics and competition with unlabeled Cbl); type: cell-based, Escherichia coli
Method: Laboratory strains E. coli (ATCC 25922) and S. aureus (ATCC 35556, methicillin susceptible) were used. Bacteria were stored at −70 °C using a cryovial bead preservation system (Microbank, Pro-Lab Diagnostics, Richmond Hill, ON, Canada). Single cryovial beads were cultured overnight on Columbia sheep blood agar plates (Becton Dickinson, Heidelberg, Germany). For in vitro binding studies, overnight cultures were prepared in snap-lid tubes from 2 to 3 CFU in 5 ml of a synthetic minimal medium depleted of vitamin B12. After 18–20 h of incubation at 37 °C and 200 rpm, the cultures were diluted 1:100 in the same medium and further incubated at 37 °C to mid-logarithmic phase in sealed tubes. […] Five hundred microlitres of resuspended cultures were transferred to Eppendorf tubes and used for the measurement of binding to viable bacteria at 37 °C. For testing binding at 4 °C, bacterial suspension in PBS were let to equilibrate for 1 h at 4 °C before adding the radiopharmaceuticals. […] Supernatants and resuspended pellets were counted in a multi-well NaI γ-counter (Cobra; Packard, USA) and the counts per minute (CPM) recorded. The percentage of radiolabeled Cbl in the pellets was calculated as the percentage of the CPMp/CPM0 ratio per log10 8.0 CFU/ml, where CPMp were the CPM associated to pellets and CPM0 were the total CPM of the radiolabeled Cbl added per vial.

[5] = cage fluid, vs sterile controls

## [^99mTc]PAMA(4)-cyanocobalamin [[^99mTc]PAMA(4)-Cbl]
S. aureus-infected cages; [5]
  Time p.i. at which cage fluid % IDTCF/ml was significantly higher in S. aureus-infected than control mice: 4 h
[1]; 24 h p.i.
  Cage fluid/blood ratio, non-infected mice: 1.53 ± 0.30
[2]
  Binding to the major Cbl transport protein TC II: abolished binding
E. coli-infected cages; [5]
  Time p.i. at which cage fluid retention was significantly higher in E. coli-infected than control mice: 8 h
[3]; ethanol-killed and/or heat-killed bacteria
  Binding to killed S. aureus: no binding
[3]; relative to [57Co]Cbl
  In vitro binding to S. aureus, fold lower than [57Co]Cbl: 3 fold

## O=C([O-])CC(O)(CC(=O)[O-])C(=O)[O-].[67Ga+3] [[^67Ga]citrate, Gallium-67 citrate]
S. aureus-infected cages; 72 h p.i.
  Cage fluid/blood ratio, mice infected with S. aureus: 3.56 ± 0.87
S. aureus-infected cages; 72 h after i.v. injection
  Cage—S. aureus, mean % ID/g tissue ± SD: 9.45 ± 2.30 % ID/g tissue
[4]; 72 h after i.v. injection
  Blood, mean % ID/g tissue ± SD: 0.46 ± 0.20 % ID/g tissue
  Bone, mean % ID/g tissue ± SD: 10.99 ± 2.40 % ID/g tissue
  Heart, mean % ID/g tissue ± SD: 1.26 ± 0.10 % ID/g tissue
  Intestine, mean % ID/g tissue ± SD: 2.00 ± 0.40 % ID/g tissue
  Kidneys, mean % ID/g tissue ± SD: 10.73 ± 1.30 % ID/g tissue
  Liver, mean % ID/g tissue ± SD: 7.44 ± 0.90 % ID/g tissue
  Lungs, mean % ID/g tissue ± SD: 2.11 ± 0.30 % ID/g tissue
  Muscle, mean % ID/g tissue ± SD: 0.69 ± 0.20 % ID/g tissue
  Spleen, mean % ID/g tissue ± SD: 6.09 ± 0.70 % ID/g tissue
  Stomach, mean % ID/g tissue ± SD: 3.73 ± 1.50 % ID/g tissue
[4]; cage fluids
  Time to peak values in cages: ≤ 12 h
[1]; 72 h p.i.
  Cage fluid/blood ratio, control (non-infected) mice: 1.14 ± 0.21
[1]; 72 h after i.v. injection
  Cage—sterile, mean % ID/g tissue ± SD: 1.45 ± 0.50 % ID/g tissue
E. coli-infected cages; 72 h p.i.
  Cage fluid/blood ratio, mice infected with E. coli: 5.41 ± 0.52
E. coli-infected cages; 72 h after i.v. injection
  Cage—E. coli, mean % ID/g tissue ± SD: 3.99 ± 1.10 % ID/g tissue

## O=C([O-])CN(CCN(CC(=O)[O-])CC(=O)[O-])CCN(CC(=O)[O-])CC(=O)[O-].[99Tc+4] [[^99mTc]DTPA]
S. aureus-infected cages; 4 h after i.v. injection
  Cage—S. aureus, mean % ID/g tissue ± SD: 0.40 ± 0.10 % ID/g tissue
S. aureus-infected cages; 24 h after i.v. injection
  Cage—S. aureus, mean % ID/g tissue ± SD: 0.05 ± 0.10 % ID/g tissue
[4]; 30 min after i.v. injection
  Blood, mean % ID/g tissue ± SD: 1.46 ± 1.10 % ID/g tissue
  Bone, mean % ID/g tissue ± SD: 0.47 ± 0.30 % ID/g tissue
  Intestine, mean % ID/g tissue ± SD: 0.90 ± 0.50 % ID/g tissue
  Kidneys, mean % ID/g tissue ± SD: 3.92 ± 0.80 % ID/g tissue
  Liver, mean % ID/g tissue ± SD: 0.33 ± 0.20 % ID/g tissue
  Lungs, mean % ID/g tissue ± SD: 0.40 ± 0.20 % ID/g tissue
  Muscle, mean % ID/g tissue ± SD: 0.34 ± 0.30 % ID/g tissue
  Spleen, mean % ID/g tissue ± SD: 0.19 ± 0.00 % ID/g tissue
  Stomach, mean % ID/g tissue ± SD: 1.67 ± 1.70 % ID/g tissue
[4]; 4 h after i.v. injection
  Blood, mean % ID/g tissue ± SD: 0.02 ± 0.10 % ID/g tissue
  Bone, mean % ID/g tissue ± SD: 0.05 ± 1.50 % ID/g tissue
  Heart, mean % ID/g tissue ± SD: 0.05 ± 0.00 % ID/g tissue
  Intestine, mean % ID/g tissue ± SD: 0.66 ± 0.20 % ID/g tissue
  Kidneys, mean % ID/g tissue ± SD: 0.93 ± 0.80 % ID/g tissue
  Liver, mean % ID/g tissue ± SD: 0.09 ± 0.00 % ID/g tissue
  Lungs, mean % ID/g tissue ± SD: 0.06 ± 0.10 % ID/g tissue
  Muscle, mean % ID/g tissue ± SD: 0.06 ± 1.10 % ID/g tissue
  Spleen, mean % ID/g tissue ± SD: 0.06 ± 0.00 % ID/g tissue
  Stomach, mean % ID/g tissue ± SD: 0.05 ± 1.10 % ID/g tissue
[4]; 24 h after i.v. injection
  Blood, mean % ID/g tissue ± SD: 0.01 ± 0.00 % ID/g tissue
  Bone, mean % ID/g tissue ± SD: 0.01 ± 0.00 % ID/g tissue
  Heart, mean % ID/g tissue ± SD: 0.01 ± 0.00 % ID/g tissue
  Intestine, mean % ID/g tissue ± SD: 0.02 ± 0.00 % ID/g tissue
  Kidneys, mean % ID/g tissue ± SD: 0.15 ± 0.00 % ID/g tissue
  Liver, mean % ID/g tissue ± SD: 0.02 ± 0.00 % ID/g tissue
  Lungs, mean % ID/g tissue ± SD: 0.01 ± 0.00 % ID/g tissue
  Muscle, mean % ID/g tissue ± SD: 0.00 ± 0.00 % ID/g tissue
  Spleen, mean % ID/g tissue ± SD: 0.02 ± 0.00 % ID/g tissue
  Stomach, mean % ID/g tissue ± SD: 0.02 ± 0.00 % ID/g tissue
[1]; 30 min after i.v. injection
  Cage—sterile, mean % ID/g tissue ± SD: 2.88 ± 0.50 % ID/g tissue
[1]; 4 h after i.v. injection
  Cage—sterile, mean % ID/g tissue ± SD: 0.34 ± 0.40 % ID/g tissue
[1]; 24 h after i.v. injection
  Cage—sterile, mean % ID/g tissue ± SD: 0.01 ± 0.00 % ID/g tissue
E. coli-infected cages; 4 h after i.v. injection
  Cage—E. coli, mean % ID/g tissue ± SD: 0.91 ± 0.15 % ID/g tissue
E. coli-infected cages; 24 h after i.v. injection
  Cage—E. coli, mean % ID/g tissue ± SD: 0.15 ± 0.10 % ID/g tissue

## cyanocobalamin [unlabeled Cbl]
E. coli (ATCC 25922); 4 °C and ethanol-killed bacteria
  Cold Cbl excess sufficient to reduce maximal [57Co]Cbl binding to E. coli to 50 %: 10 fold
E. coli (ATCC 25922); 37 °C, viable bacteria, 1 h simultaneous incubation
  Concentration of unlabeled Cbl required to show inhibition of [57Co]Cbl binding to E. coli: 1000 fold
[3]; S. aureus, 3 h
  Excess of unlabeled Cbl that decreased [99mTc]PAMA(4)-Cbl binding to S. aureus: 1 fold
[3]; both 37 and 4 °C, 3 h
  Excess of unlabeled Cbl that reduced [57Co]Cbl binding to S. aureus: 10 fold
